Measurements reported in patent EP1096933B1, “USE OF AN INHIBITOR OF CYTOCHROME P450 OPTIONALLY COMBINED WITH AN ANTIFUNGAL AGENT FOR TREATING MYCOSES” (priority 1998, dated 2000).
Like-named read-outs stand apart in the source and are kept apart here.

Key:
Assay in all cases: growth of strains streaked on Sabouraud agar containing the products
Type in all cases: cell-based
[1] = test system: Microsporum canis; settings: Micro. Canis, read-out: inhibition de la croissance
Description: (§1) Ces molécules ont été incorporées dans un milieu gélosé dit de Sabouraud (peptone 10g/l, glucose 10 g/l, gomme agar 15 g/l).
(§2) Des souches de diverses espèces de champignons ont été ensemencées par stries par la méthode de Stires.
(§3) Le pourcentage de croissance a été mesuré au cours du temps, pour des périodes allant jusqu'à 21 jours, pour certaines des souches testées.
(§4) Les quantités de pipéronyl butoxyde, et de cyclopyroxolamine utilisées sont identiques et sont de 10 ou 20 µg/ml dans le cas de l'association entre ces deux composés.
(§5) Dans le cas de l'association entre le pipéronyl butoxyde et l'éconazole, elles sont respectivement de 10 ou 20 µg/ml de pipéronyl butoxyde et de 1 µg/ml d'éconazole.
(§6) Des souches appartenant aux espèces suivantes ont été testées: Microsporum canis, Trichophyton rubrum, Trichophyton interdigitale, Trichophyton mentagrophytes, Microsporum persicolor, Epidermophyton floccosum, Trichophyton violaceum et Trichophyton soudanense.
(§7) L'activité du pipéronyl butoxyde seul a été testée à diverses concentrations, comme indiqué dans le tableau 1 sur le milieu de Sabouraud, dépourvu de tout autre fongicide.

[2] = test system: Microsporum persicolor; settings: Nannizzia persicolor, Micro.Persicolor; for activity at 10 µg/mL: 10µg/ml each product, read-out: % DE CROISSANCE; for inhibition at 2 µg/mL / inhibition at 10 µg/mL / inhibition at 20 µg/mL / inhibition at 50 µg/mL: read-out: inhibition de la croissance
Description: as §1, §2, §3, §4, §5, §6, §7

[3] = test system: Trichophyton interdigitale; settings: Tric.Interdigitale; for activity at 20 µg/mL: read-out: % DE CROISSANCE; for inhibition at 2 µg/mL / inhibition at 10 µg/mL / inhibition at 20 µg/mL / inhibition at 50 µg/mL: read-out: inhibition de la croissance
Description: as §1, §2, §3, §4, §5, §6, §7

[4] = test system: Trichophyton soudanense; settings: Tric.Soudanese; for activity at 10 µg/mL: read-out: % DE CROISSANCE; for inhibition at 2 µg/mL / inhibition at 10 µg/mL / inhibition at 20 µg/mL / inhibition at 50 µg/mL: read-out: inhibition de la croissance
Description: as §1, §2, §3, §4, §5, §6, §7

CCCCOCCOCCOCc1cc2c(cc1CCC)OCO2 [Piperonyl., pipéronyl butoxyde]
40%: activity at 10 µg/mL ([2]; 240 h, J10) | inhibition at 10 µg/mL ([2]; J+10)
85%: inhibition at 2 µg/mL ([2]; J+10)
10%: activity at 10 µg/mL ([4]; 144 h, J6, 10µg/ml each product) | activity at 10 µg/mL ([4]; 240 h, J10, 10µg/ml each product) | inhibition at 10 µg/mL ([4]; J+10, 10 µg/ml)
100%: inhibition at 2 µg/mL ([1]; J+14, 2 µg/ml) | inhibition at 2 µg/mL ([2]; J+14) | inhibition at 2 µg/mL ([3]; J+14, 2 µg/ml) | inhibition at 2 µg/mL ([4]; J+14, 2 µg/ml)
70%: activity at 20 µg/mL ([3]; 336 h, J14, 20µg/ml each product) | inhibition at 10 µg/mL ([3]; J+10, 10 µg/ml) | inhibition at 20 µg/mL ([3]; J+14, 20 µg/ml)
60%: inhibition at 10 µg/mL ([1]; J+10, 10 µg/ml) | inhibition at 20 µg/mL ([1]; J+14, 20 µg/ml) | activity at 20 µg/mL ([3]; 240 h, J10, 20µg/ml each product) | inhibition at 20 µg/mL ([3]; J+10, 20 µg/ml)
0%: inhibition at 50 µg/mL ([1]; J+4, 50 µg/ml) | inhibition at 50 µg/mL ([1]; J+10, 50 µg/ml) | inhibition at 50 µg/mL ([1]; J+14, 50 µg/ml) | activity at 10 µg/mL ([2]; 0 h, J0) | activity at 10 µg/mL ([2]; 96 h, J4) | inhibition at 10 µg/mL ([2]; J+4) | inhibition at 20 µg/mL ([2]; J+4) | inhibition at 50 µg/mL ([2]; J+4) | inhibition at 50 µg/mL ([2]; J+10) | inhibition at 50 µg/mL ([2]; J+14) | activity at 20 µg/mL ([3]; 0 h, J0, 20µg/ml each product) | inhibition at 50 µg/mL ([3]; J+4, 50 µg/ml) | inhibition at 50 µg/mL ([3]; J+10, 50 µg/ml) | inhibition at 50 µg/mL ([3]; J+14, 50 µg/ml) | activity at 10 µg/mL ([4]; 0 h, J0, 10µg/ml each product) | activity at 10 µg/mL ([4]; 96 h, J4, 10µg/ml each product) | inhibition at 10 µg/mL ([4]; J+4, 10 µg/ml) | inhibition at 20 µg/mL ([4]; J+4, 20 µg/ml) | inhibition at 50 µg/mL ([4]; J+4, 50 µg/ml) | inhibition at 20 µg/mL ([4]; J+10, 20 µg/ml) | inhibition at 50 µg/mL ([4]; J+10, 50 µg/ml) | inhibition at 20 µg/mL ([4]; J+14, 20 µg/ml) | inhibition at 50 µg/mL ([4]; J+14, 50 µg/ml)
75%: activity at 10 µg/mL ([2]; 336 h, J14) | inhibition at 10 µg/mL ([2]; J+14)
15%: inhibition at 10 µg/mL ([3]; J+4, 10 µg/ml)
20%: activity at 10 µg/mL ([2]; 144 h, J6) | inhibition at 2 µg/mL ([2]; J+4) | inhibition at 20 µg/mL ([2]; J+10)
30%: inhibition at 2 µg/mL ([3]; J+4, 2 µg/ml)
25%: inhibition at 20 µg/mL ([2]; J+14) | activity at 20 µg/mL ([3]; 144 h, J6, 20µg/ml each product) | activity at 10 µg/mL ([4]; 336 h, J14, 10µg/ml each product) | inhibition at 2 µg/mL ([4]; J+4, 2 µg/ml) | inhibition at 10 µg/mL ([4]; J+14, 10 µg/ml)
80%: inhibition at 2 µg/mL ([1]; J+10, 2 µg/ml) | inhibition at 10 µg/mL ([1]; J+14, 10 µg/ml) | inhibition at 2 µg/mL ([3]; J+10, 2 µg/ml) | inhibition at 10 µg/mL ([3]; J+14, 10 µg/ml) | inhibition at 2 µg/mL ([4]; J+10, 2 µg/ml)
5%: activity at 20 µg/mL ([3]; 96 h, J4, 20µg/ml each product) | inhibition at 20 µg/mL ([3]; J+4, 20 µg/ml)
45%: inhibition at 20 µg/mL ([1]; J+10, 20 µg/ml)
